Results from US20070059376A1, “Peptide conjugate” (priority 2003, published 2007).
One block for each molecule: values may come before it. Groups on a side chain read outwards from the residue. No end group written: not given here. Glu2C18 = not defined here

Legend:
[1] = Retention of H12-PEG-Glu2C18 in phospholipid vesicles (1H-NMR molar ratio after shaking); format: physicochemical; conditions: diluted 30 times with PBS, shaken at 37° C. for 12 hours
Procedure: In this connection, the prepared phospholipid vesicles (H12-PEG vesicles, 1.8 wt %) were diluted 30 times with PBS and shaken at 37° C. for 12 hours, and then the vesicles were precipitated by centrifugation (33000 rpm, 1 h) and dispersed, followed by freeze drying, and the resulting powder was subjected to ^1H-NMR measurement.

[2] = tested on: platelets; test: Aggregation test with platelets, vesicles as carrier: platelet adhesion on collagen surface under flow in thrombocytopenic blood; format: cell-based; conditions: for SC of platelets (%): thrombocytopenic blood, platelets 5.0×10^4/μl, collagen surface, shear 150 s^-1, H12-PEG-Glu2C18 0.3 mol %
Procedure: Platelets were fluorescence-labeled with DiOC6, and the H12-PEG(PEG) vesicle (1.5 wt %, 200 μl) was added to 5 ml of the thrombocytopenic blood ([platelets]=5.0×10^4/μl), allowed to stand (37° C., 10 min), allowed to flow on the collagen surface at a rate of shear of 150 s^−1, and then observed under a fluorescence microscope. The SC of platelets on the surface was analyzed by Argus-20. When H12-PEG vesicle (H12-PEG-Glu2C18: 0.3 mol %) or PEG vesicle was added to the thrombocytopenic blood ([platelets]=5.0×10^4/μl) and allowed to flow on the collagen surface, the SC was increased in the H12-PEG vesicle-added system, in comparison with the PEG vesicle-added system (Table 1).

[3] = tested on: platelets; test: Interaction with platelets, vesicles as carrier (flow cytometry, PAC-1 and vesicle binding); format: cell-based; conditions: thrombocytopenia plasma, platelets 5.0×10^4/μl, 30 min, 37° C.
Procedure: After 80 μl of thrombocytopenia plasma ([platelets]=5.0×10^4/μl) was prepared, fluorescence-labeled H12-PEG(PEG) vesicles (8.2 μM, 20 μl) or a fluorescence-labeled antibody and H12-PEG(PEG) vesicles (0.082 μM, 20 μl) were added thereto, followed by stirring (30 min, 37° C.). The mixture was subsequently subjected to formaldehyde (3.7%) fixation, diluted 10 times and then measured using flow cytometry.

[4] = tested on: resting platelets; test: Binding test to resting platelets (flow cytometry aggregation ratio); format: cell-based; conditions: resting platelets 2.0×10^4/μl, beads 1.0×10^5/μl, 37° C., 30 min
Procedure: (§1) Resting platelets (2.0×10^4/μl) were mixed with 1.0×10^5/μl of each of LB, H12-LB and CGGRGDF-LB [LB bound with a peptide having an RGD sequence (Arg-Gly-Asp)], followed by shaking (37° C., 30 min), and the aggregation ratio in each case was evaluated by flow cytometry. […] Based on this, it was confirmed that H12-LB hardly agglutinate to resting platelets when compared with CGGRGDF-LB.

[5] = tested on: platelets; test: Aggregation test with platelets, latex beads as carrier: platelet adhesion on collagen-immobilized surface under flow in thrombocytopenia model blood; format: cell-based; conditions: after 180 seconds
Procedure: (§2) A thrombocytopenia model blood was prepared by passing whole blood-through a leukocyte removing filter for leukocyte depleted preparations (NEOIJ, Nihon Pall) by gravity, and adjusting the platelet concentration to 2.0×10^4/μl by adding platelet rich plasma (PRP) (an automatic blood cell counter K-4500, Sysmex, Kobe).
(§3) H12-LB (1.0×10^5 particles/μl) was added to 5 ml of the thrombocytopenia model blood, allowed to stand (37° C., 10 min), flowed on a collagen-immobilized surface using a pump (rate of shear 150 s^−1), and then observed under a fluorescence microscope or through a CCD camera. An adhesion occupying ratio [surface coverage (hereinafter referred to as “SC”)] of micro particles to each surface was measured using an image analyzer (Argus-50, Hamamatsu Photonics).
Only platelets were subjected to fluorescence labeling [3,3′-dihexyloxacarbocyanine iodide (DiOC6)], and their adhesion behavior was periodically observed. As a result, SC of platelets on the surface increased with the lapse of time and was 3.1±0.4% after 180 seconds (FIG. 1: □, control). […] Thus, when H12-LB was added instead of LB, the platelet adhesion was further amplified than the case of the LB addition, and was 5.1±0.3% after 180 seconds, or amplified about 1.7 times than the control (FIG. 1: ∘).

[6] = tested on: platelets activated by adhering to collagen; test: Adhesion behavior of FITC-labeled latex beads on collagen-immobilized surface under flow in thrombocytopenia model blood; format: cell-based
Procedure: as §2, §3
In addition, the number of H12-LB bound to the surface was inhibited when the platelet concentration was 0.2×10^4/μl (FIG. 2: •), and were hardly seen in the case of LB (FIG. 2: □).

[7] = target: T1, GPIIb/IIIa on resting platelets (UniProt P08514 32-1039; P05106 27-788, limits assumed); test: flow cytometry, fluorescence-labeled antibody on platelets, PBS added
T1 construct: whole, on cells; also called resting GPIIb/IIIa; normal platelets

[8] = target: T1, GPIIb/IIIa on resting platelets; test: flow cytometry, fluorescence-labeled antibody on platelets, H12-PEG(PEG) vesicles added
[9] = target: T1, GPIIb/IIIa on resting platelets; test: flow cytometry, fluorescence-labeled antibody on platelets, PEG vesicles added
[10] = target: T1, GPIIb/IIIa on resting platelets; test: flow cytometry, beads (1.0×10^5/µl) mixed with resting platelets (2.0×10^4/µl), 37° C., 30 min
Procedure: as §1, with “(2.0×10⁴/μl)” for “(2.0×10^4/μl)”, “1.0×10⁵/μl” for “1.0×10^5/μl”

T1 sequence (P08514 32-1039 limits assumed, chain 1 of 2): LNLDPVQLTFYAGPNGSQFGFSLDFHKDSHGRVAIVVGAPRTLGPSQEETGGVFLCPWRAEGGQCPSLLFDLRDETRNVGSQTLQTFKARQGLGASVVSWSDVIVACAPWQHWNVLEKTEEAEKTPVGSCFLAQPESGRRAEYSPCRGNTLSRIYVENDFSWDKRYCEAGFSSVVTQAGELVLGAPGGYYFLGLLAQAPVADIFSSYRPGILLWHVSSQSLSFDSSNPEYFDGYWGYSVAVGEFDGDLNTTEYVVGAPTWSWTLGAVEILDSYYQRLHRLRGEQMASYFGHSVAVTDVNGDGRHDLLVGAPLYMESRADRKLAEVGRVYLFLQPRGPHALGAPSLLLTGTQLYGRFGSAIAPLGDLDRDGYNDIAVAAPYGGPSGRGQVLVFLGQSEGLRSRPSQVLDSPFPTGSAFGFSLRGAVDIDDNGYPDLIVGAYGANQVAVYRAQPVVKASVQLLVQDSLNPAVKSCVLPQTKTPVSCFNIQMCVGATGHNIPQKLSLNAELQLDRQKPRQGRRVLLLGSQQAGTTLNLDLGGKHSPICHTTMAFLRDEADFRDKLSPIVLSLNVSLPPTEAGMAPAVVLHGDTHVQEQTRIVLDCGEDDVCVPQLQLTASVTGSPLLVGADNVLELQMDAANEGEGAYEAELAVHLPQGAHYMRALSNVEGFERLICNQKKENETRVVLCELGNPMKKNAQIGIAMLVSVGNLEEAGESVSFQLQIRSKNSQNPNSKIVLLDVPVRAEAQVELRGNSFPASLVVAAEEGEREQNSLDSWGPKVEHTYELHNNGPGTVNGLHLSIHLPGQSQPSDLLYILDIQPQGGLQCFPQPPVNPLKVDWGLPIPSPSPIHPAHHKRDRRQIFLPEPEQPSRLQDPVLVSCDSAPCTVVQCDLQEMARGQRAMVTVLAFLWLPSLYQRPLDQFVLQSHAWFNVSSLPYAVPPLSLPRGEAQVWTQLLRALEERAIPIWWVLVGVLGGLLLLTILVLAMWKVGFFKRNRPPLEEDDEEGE
T1 sequence (P05106 27-788 limits assumed, chain 2 of 2): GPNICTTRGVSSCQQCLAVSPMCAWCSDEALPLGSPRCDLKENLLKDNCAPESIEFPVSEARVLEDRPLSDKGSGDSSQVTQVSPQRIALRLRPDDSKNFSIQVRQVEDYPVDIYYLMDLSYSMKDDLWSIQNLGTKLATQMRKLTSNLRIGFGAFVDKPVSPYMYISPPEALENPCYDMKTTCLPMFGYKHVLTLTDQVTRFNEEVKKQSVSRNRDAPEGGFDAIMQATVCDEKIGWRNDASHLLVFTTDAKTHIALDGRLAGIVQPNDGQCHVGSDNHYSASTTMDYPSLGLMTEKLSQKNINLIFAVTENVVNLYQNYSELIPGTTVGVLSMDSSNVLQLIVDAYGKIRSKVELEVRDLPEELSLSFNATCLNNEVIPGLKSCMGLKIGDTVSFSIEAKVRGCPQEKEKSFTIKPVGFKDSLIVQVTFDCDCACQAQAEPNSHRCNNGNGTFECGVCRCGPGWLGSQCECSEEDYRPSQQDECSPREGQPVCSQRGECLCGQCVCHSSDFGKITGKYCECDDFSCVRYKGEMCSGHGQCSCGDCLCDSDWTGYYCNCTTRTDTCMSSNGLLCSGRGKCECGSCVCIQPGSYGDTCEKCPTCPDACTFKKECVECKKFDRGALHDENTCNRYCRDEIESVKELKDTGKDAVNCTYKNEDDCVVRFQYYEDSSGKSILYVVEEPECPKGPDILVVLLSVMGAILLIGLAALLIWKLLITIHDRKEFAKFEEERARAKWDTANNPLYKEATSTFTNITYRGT

Molecule: H12-PEG vesicle: DPPC/cholesterol vesicle containing H12-PEG-Glu2C18 alone (C([MAL‑PEG3400-Glu2C18])HHLGGAKQAGDV-OH; not fully specified; reading uncertain)
stability: retention of H12-PEG-Glu2C18 in vesicles (molar ratio of DPPC, cholesterol and H12-PEG-Glu2C18) [1]: not released from the phospholipid vesicles but stably maintained
SC of platelets (%) [2]: 15.0 ± 5.0%

Molecule: H12-PEG(PEG) vesicle: DPPC/cholesterol vesicle containing PEG-Glu2C18 and H12-PEG-Glu2C18 (CHHLGGAKQAGDV-OH; not fully specified (residue 1))
PAC-1 binding (%) ([3]; fluorescence-labeled antibody with vesicles): 3.7 ± 0.4%
vesicle binding (%) ([3]; fluorescence-labeled vesicles): 1.4 ± 0.6%
SC of platelets on collagen surface ([2]; H12-PEG-Glu2C18 modification ratio 0.1 mol % or less (FIG. 6)): almost the same as the case of PEG vesicle
SC of platelets on collagen surface ([2]; H12-PEG-Glu2C18 modification ratio 0.3 mol % or more (FIG. 6)): the effect appears
SC of platelets (%) [2]: 17.3 ± 1.9%

Molecule: H12-LB: Dodecapeptide H12 (SEQ ID NO: 1, via Cys and SPDP linker) coupled to rHSA-adsorbed latex beads of 1 μm diameter (CHHLGGAKQAGDV; cyclised or stapled)
aggregation ratio with resting platelets [4]: did not show increase
amplification of platelet adhesion versus control (LB) [5]: about 1.7 times
SC (surface coverage) of platelets on collagen surface ([5]; shear 150 s^-1, platelets 2.0×10^4/μl, beads 1.0×10^5 particles/μl, DiOC6-labeled platelets): 5.1±0.3%
number of beads bound to collagen surface ([6]; platelet concentration 0.2×10^4/μl (FIG. 2)): inhibited
SC of FITC-labeled beads bound to collagen surface ([6]; platelets 2.0×10^4/μl, shear 150 s^-1 (FIG. 2)): gradually increased

Molecule: CGGRGDF-LB: LB bound with a peptide having an RGD sequence (Arg-Gly-Asp) (also: bound to latex beads (LB)) [reference compound]
aggregation ratio with resting platelets [4]: 2.9 ± 1.3%

PAC-1 binding (%) [7]: 3.8%
PAC-1 binding (%) [8]: 3.7%
PAC-1 binding (%) [9]: 3.4%
Molecule: PAC-1 (antibody)

aggregation ratio [10]: 2.9%
Molecule: CGGRGDF (also: bound to latex beads, coupling chemistry not described, Comparison conjugate) [CGGRGDF-LB [LB bound with a peptide having an RGD sequence (Arg-Gly-Asp)]]
